Measurements from the supplement of paper PMC10307832.

Experiments:
Experiment in all cases: relative viability (nuclei count vs DMSO), 5 days (fraction); higher = more cells survive
HCC-366 = tested on: HCC-366
Procedure, shortened: (§1)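 Lung cancer cell lines were pin-tool dosed in 1536-well plates on the day after seeding, with either a lone drug or a fixed anchor-drug dose plus five library-drug doses (not always all listed) in √10 steps. Nuclei were counted on 4× images after 5 days. Relative viability is the ratio of treated-well to vehicle-well nuclei counts, with each value a median of duplicate plates.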

SK-MES-1 = tested on: SK-MES-1
Procedure, shortened: as §1

LC-2-ad = tested on: LC-2-ad
Procedure, shortened: as §1

NCI-H1395 = tested on: NCI-H1395
Procedure, shortened: as §1

NCI-H1734 = tested on: NCI-H1734
Procedure, shortened: as §1

EKVX = tested on: EKVX
Procedure, shortened: as §1

NCI-H2170 = tested on: NCI-H2170
Procedure, shortened: as §1

NCI-H647 = tested on: NCI-H647
Procedure, shortened: as §1

NCI-H1792 = tested on: NCI-H1792
Procedure, shortened: as §1

LOU-NH91 = tested on: LOU-NH91
Procedure, shortened: as §1

NCI-H2087 = tested on: NCI-H2087
Procedure, shortened: as §1

SK-LU-1 = tested on: SK-LU-1
Procedure, shortened: as §1

NCI-H596 = tested on: NCI-H596
Procedure, shortened: as §1

NCI-H1355 = tested on: NCI-H1355
Procedure, shortened: as §1

NCI-H2009 = tested on: NCI-H2009
Procedure, shortened: as §1

HCC-827 = tested on: HCC-827
Procedure, shortened: as §1

NCI-H2228 = tested on: NCI-H2228
Procedure, shortened: as §1

NCI-H1437 = tested on: NCI-H1437
Procedure, shortened: as §1

NCI-H2405 = tested on: NCI-H2405
Procedure, shortened: as §1

HARA = tested on: HARA
Procedure, shortened: as §1

NCI-H661 = tested on: NCI-H661
Procedure, shortened: as §1

BEN = tested on: BEN
Procedure, shortened: as §1

SMILES: Oc1nc(-c2ccc(C(F)(F)F)cc2)nc2c1CSCC2 [XAV939] + CS(=O)(=O)N1CCN(Cc2cc3nc(-c4cccc5[nH]ncc45)nc(N4CCOCC4)c3s2)CC1 [Pictilisib] (partner 1 µM)
- relative viability (HCC-366; first compound 0.08 µM): 0.164
- relative viability (HCC-366; first compound 0.253 µM): 0.114
- relative viability (HCC-366; first compound 0.8 µM): 0.142
- relative viability (HCC-366; first compound 2.53 µM): 0.0889
- relative viability (SK-MES-1; first compound 0.08 µM): 0.401
- relative viability (SK-MES-1; first compound 0.253 µM): 0.327
- relative viability (SK-MES-1; first compound 0.8 µM): 0.415
- relative viability (SK-MES-1; first compound 2.53 µM): 0.32
- relative viability (LC-2-ad; first compound 0.08 µM): 0.5
- relative viability (LC-2-ad; first compound 0.253 µM): 1.13
- relative viability (LC-2-ad; first compound 0.8 µM): 0.407
- relative viability (LC-2-ad; first compound 2.53 µM): 0.428
- relative viability (NCI-H1395; first compound 0.08 µM): 0.685
- relative viability (NCI-H1395; first compound 0.253 µM): 0.58
- relative viability (NCI-H1395; first compound 0.8 µM): 0.597
- relative viability (NCI-H1395; first compound 2.53 µM): 0.675
- relative viability (NCI-H1734; first compound 0.08 µM): 0.488
- relative viability (NCI-H1734; first compound 0.253 µM): 0.418
- relative viability (NCI-H1734; first compound 0.8 µM): 0.371
- relative viability (NCI-H1734; first compound 2.53 µM): 0.383
- relative viability (EKVX; first compound 0.08 µM): 0.413
- relative viability (EKVX; first compound 0.253 µM): 0.301
- relative viability (EKVX; first compound 0.8 µM): 0.377
- relative viability (EKVX; first compound 2.53 µM): 0.24
- relative viability (NCI-H2170; first compound 0.08 µM): 0.298
- relative viability (NCI-H2170; first compound 0.253 µM): 0.277
- relative viability (NCI-H2170; first compound 0.8 µM): 0.269
- relative viability (NCI-H2170; first compound 2.53 µM): 0.26
- relative viability (NCI-H647; first compound 0.08 µM): 0.471
- relative viability (NCI-H647; first compound 0.253 µM): 0.378
- relative viability (NCI-H647; first compound 0.8 µM): 0.381
- relative viability (NCI-H647; first compound 2.53 µM): 0.51
- relative viability (NCI-H1792; first compound 0.08 µM): 0.331
- relative viability (NCI-H1792; first compound 0.253 µM): 0.254
- relative viability (NCI-H1792; first compound 0.8 µM): 0.229
- relative viability (NCI-H1792; first compound 2.53 µM): 0.257
- relative viability (LOU-NH91; first compound 0.08 µM): 0.498
- relative viability (LOU-NH91; first compound 0.253 µM): 0.471
- relative viability (LOU-NH91; first compound 0.8 µM): 0.509
- relative viability (LOU-NH91; first compound 2.53 µM): 0.504
- relative viability (NCI-H2087; first compound 0.08 µM): 0.976
- relative viability (NCI-H2087; first compound 0.253 µM): 0.636
- relative viability (NCI-H2087; first compound 0.8 µM): 0.897
- relative viability (NCI-H2087; first compound 2.53 µM): 0.876
- relative viability (SK-LU-1; first compound 0.08 µM): 0.631
- relative viability (SK-LU-1; first compound 0.253 µM): 0.504
- relative viability (SK-LU-1; first compound 0.8 µM): 0.646
- relative viability (SK-LU-1; first compound 2.53 µM): 0.565
- relative viability (NCI-H596; first compound 0.08 µM): 0.427
- relative viability (NCI-H596; first compound 0.253 µM): 0.384
- relative viability (NCI-H596; first compound 0.8 µM): 0.422
- relative viability (NCI-H596; first compound 2.53 µM): 0.4
- relative viability (NCI-H1355; first compound 0.08 µM): 0.414
- relative viability (NCI-H1355; first compound 0.253 µM): 0.374
- relative viability (NCI-H1355; first compound 0.8 µM): 0.387
- relative viability (NCI-H1355; first compound 2.53 µM): 0.236
- relative viability (NCI-H2009; first compound 0.08 µM): 0.878
- relative viability (NCI-H2009; first compound 0.253 µM): 0.718
- relative viability (NCI-H2009; first compound 0.8 µM): 0.67
- relative viability (NCI-H2009; first compound 2.53 µM): 0.511
- relative viability (HCC-827; first compound 0.08 µM): 1.05
- relative viability (HCC-827; first compound 0.253 µM): 1.02
- relative viability (HCC-827; first compound 0.8 µM): 1.24
- relative viability (HCC-827; first compound 2.53 µM): 1.21
- relative viability (NCI-H2228; first compound 0.08 µM): 0.247
- relative viability (NCI-H2228; first compound 0.253 µM): 0.304
- relative viability (NCI-H2228; first compound 0.8 µM): 0.253
- relative viability (NCI-H2228; first compound 2.53 µM): 0.382
- relative viability (NCI-H1437; first compound 0.08 µM): 0.436
- relative viability (NCI-H1437; first compound 0.253 µM): 0.44
- relative viability (NCI-H1437; first compound 0.8 µM): 0.561
- relative viability (NCI-H1437; first compound 2.53 µM): 0.234
- relative viability (NCI-H2405; first compound 0.08 µM): 0.502
- relative viability (NCI-H2405; first compound 0.253 µM): 0.526
- relative viability (NCI-H2405; first compound 0.8 µM): 0.416
- relative viability (NCI-H2405; first compound 2.53 µM): 0.378
- relative viability (HARA; first compound 0.08 µM): 0.477
- relative viability (HARA; first compound 0.253 µM): 0.386
- relative viability (HARA; first compound 0.8 µM): 0.345
- relative viability (HARA; first compound 2.53 µM): 0.394
- relative viability (NCI-H661; first compound 0.08 µM): 0.477
- relative viability (NCI-H661; first compound 0.253 µM): 0.378
- relative viability (NCI-H661; first compound 0.8 µM): 0.329
- relative viability (NCI-H661; first compound 2.53 µM): 0.267
- relative viability (BEN; first compound 0.08 µM): 0.579
- relative viability (BEN; first compound 0.253 µM): 0.472
- relative viability (BEN; first compound 0.8 µM): 0.529
